For test [1], the target named is T1, SaTatD (SAV0491) (Staphylococcus aureus, UniProt W8U6D8).
T1 construct: gene yabD
Conditions: two phosphates per monomer in active site, coordinated to two Ni2+; SeMet-derived protein; 2.4 M sodium malonate pH 7.0, 20°C.

The target of test [2] is SaTatD (SAV0491), TatD-like DNase from Staphylococcus aureus (Mu50 strain) (Staphylococcus aureus (Mu50 strain)). Nature of the test: SEC; analytical gel filtration, Superdex 200 (10/300 GL), buffer A (20 mM Tris, 150 mM NaCl pH 8.0), 0.5 ml/min, gel-filtration standards; SaTatD at 20.0 mg/ml (high concentration).

From article PMC7201278, “A structural study of TatD from Staphylococcus aureus elucidates a putative DNA-binding mode of a Mg^2+-dependent nuclease” (IUCrJ, 2020) come the findings set out here.

As for `O=P(O)(O)O` [phosphate], the “X-ray crystal structure (SAD, 1.85 Å)” value in test [1] was “Polar interactions were also observed between the two phosphates and the surface residues of SaTatD”. “SaTatD (SAV0491), TatD-like DNase from Staphylococcus aureus (Mu50 strain) (enzyme)”: the stoichiometry N (as a rule, the number of molecules, sites or subunits per partner or assembly) in test [2] came out at 2.
